Reference: PubChem BioAssay AID2060508 (Molecular Pharmacology Branch, DTP, NCI, 2025)

System: 454973-116-R2-J3-PDC spheroids, viability, % test/control
Assay: Anticancer human tumor 454973-116-R2-J3-PDC patient-derived pancreatic carcinoma cell line growth inhibition [GQUAD]
Details: spheroids with HUVEC and MSC; for IC50: curve of first compound; for viability, T/C: stronger effect = lower value
Method in brief: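 Tumor cells were grown as complex spheroids with HUVEC endothelial cells and mesenchymal stem cells as stroma. G-quadruplex stabilizers were combined with targeted agents over half-log dilutions from near the clinical Cmax, or from 10 microM.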

[1] = second compound 0.0316 µM, first compound 0.0316 µM
[2] = second compound 0.0316 µM, first compound 0.316 µM
[3] = second compound 0.1 µM, first compound 0.0316 µM
[4] = second compound 0.1 µM, first compound 0.316 µM
[5] = second compound 0.316 µM, first compound 0.0316 µM
[6] = second compound 0.316 µM, first compound 0.316 µM
[7] = second compound 1 µM, first compound 0.0316 µM
[8] = second compound 1 µM, first compound 0.316 µM
[9] = second compound 3.16 µM, first compound 0.0316 µM
[10] = second compound 3.16 µM, first compound 0.316 µM
[11] = second compound 10 µM, first compound 0.0316 µM
[12] = second compound 10 µM, first compound 0.316 µM
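Further: spheroids exposed to compounds for seven days.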
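Wherever viability, T/C is given: 100% = DMSO vehicle control viability.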

SMILES: C#Cc1c(F)ccc2cc(O)cc(-c3ncc4c(N5CC6CCC(C5)N6)nc(OCC56CCCN5CC(F)C6)nc4c3F)c12 (centres undefined) + CN(C)c1ccc(Nc2c3ccc(NC(=O)CCN4CCCC4)cc3nc3cc(NC(=O)CCN4CCCC4)ccc23)cc1
- IC50 (second compound 0.0316 µM): 41.7 nM
- IC50 (second compound 0.1 µM): 52.3 nM
- IC50 (second compound 0.316 µM): 31.8 nM
- IC50 (second compound 1 µM): < 31.6 nM
- IC50 (second compound 3.16 µM): 39.7 nM
- IC50 (second compound 10 µM): < 31.6 nM
- viability, T/C [1]: 54.1%
- viability, T/C (second compound 0.0316 µM, first compound 0.1 µM): 37.5%
- viability, T/C [2]: 28.1%
- viability, T/C (second compound 0.0316 µM, first compound 1 µM): 20.2%
- viability, T/C (second compound 0.0316 µM, first compound 3.16 µM): 20.2%
- viability, T/C (second compound 0.0316 µM, first compound 10 µM): 15.8%
- viability, T/C [3]: 56.4%
- viability, T/C (second compound 0.1 µM, first compound 0.1 µM): 41.9%
- viability, T/C [4]: 24.3%
- viability, T/C (second compound 0.1 µM, first compound 1 µM): 22.4%
- viability, T/C (second compound 0.1 µM, first compound 3.16 µM): 21.2%
- viability, T/C (second compound 0.1 µM, first compound 10 µM): 16.9%
- viability, T/C [5]: 50%
- viability, T/C (second compound 0.316 µM, first compound 0.1 µM): 35.7%
- viability, T/C [6]: 23%
- viability, T/C (second compound 0.316 µM, first compound 1 µM): 21.4%
- viability, T/C (second compound 0.316 µM, first compound 3.16 µM): 17.4%
- viability, T/C (second compound 0.316 µM, first compound 10 µM): 15.7%
- viability, T/C [7]: 49.4%
- viability, T/C (second compound 1 µM, first compound 0.1 µM): 33.1%
- viability, T/C [8]: 26.9%
- viability, T/C (second compound 1 µM, first compound 1 µM): 16.9%
- viability, T/C (second compound 1 µM, first compound 3.16 µM): 18.6%
- viability, T/C (second compound 1 µM, first compound 10 µM): 18%
- viability, T/C [9]: 53.8%
- viability, T/C (second compound 3.16 µM, first compound 0.1 µM): 36%
- viability, T/C [10]: 26.9%
- viability, T/C (second compound 3.16 µM, first compound 1 µM): 23%
- viability, T/C (second compound 3.16 µM, first compound 3.16 µM): 21.3%
- viability, T/C (second compound 3.16 µM, first compound 10 µM): 12.1%
- viability, T/C [11]: 44.9%
- viability, T/C (second compound 10 µM, first compound 0.1 µM): 26.7%
- viability, T/C [12]: 17.5%
- viability, T/C (second compound 10 µM, first compound 1 µM): 13.4%
- viability, T/C (second compound 10 µM, first compound 3.16 µM): 3.6%
- viability, T/C (second compound 10 µM, first compound 10 µM): 0.44%

SMILES: Cc1[nH]c2ccccc2c1CCNCc1ccc(/C=C/C(=O)NO)cc1 + CN(C)c1ccc(Nc2c3ccc(NC(=O)CCN4CCCC4)cc3nc3cc(NC(=O)CCN4CCCC4)ccc23)cc1
- IC50 (second compound 0.0316 µM): 72.5 nM
- IC50 (second compound 0.1 µM): 66.8 nM
- IC50 (second compound 0.316 µM): 56.3 nM
- IC50 (second compound 1 µM): 48.8 nM
- IC50 (second compound 3.16 µM): 53.2 nM
- IC50 (second compound 10 µM): 35.4 nM
- viability, T/C (second compound 0.0316 µM, first compound 0.000999 µM): 104%
- viability, T/C (second compound 0.0316 µM, first compound 0.00316 µM): 102%
- viability, T/C (second compound 0.0316 µM, first compound 0.00999 µM): 106%
- viability, T/C [1]: 83.2%
- viability, T/C (second compound 0.0316 µM, first compound 0.0999 µM): 37.1%
- viability, T/C [2]: 6.62%
- viability, T/C (second compound 0.1 µM, first compound 0.000999 µM): 107%
- viability, T/C (second compound 0.1 µM, first compound 0.00316 µM): 96.7%
- viability, T/C (second compound 0.1 µM, first compound 0.00999 µM): 92.8%
- viability, T/C [3]: 89.5%
- viability, T/C (second compound 0.1 µM, first compound 0.0999 µM): 28.9%
- viability, T/C [4]: 6.22%
- viability, T/C (second compound 0.316 µM, first compound 0.000999 µM): 93.8%
- viability, T/C (second compound 0.316 µM, first compound 0.00316 µM): 93.3%
- viability, T/C (second compound 0.316 µM, first compound 0.00999 µM): 99.2%
- viability, T/C [5]: 68.7%
- viability, T/C (second compound 0.316 µM, first compound 0.0999 µM): 30.2%
- viability, T/C [6]: 6.88%
- viability, T/C (second compound 1 µM, first compound 0.000999 µM): 96.8%
- viability, T/C (second compound 1 µM, first compound 0.00316 µM): 92.5%
- viability, T/C (second compound 1 µM, first compound 0.00999 µM): 92.3%
- viability, T/C [7]: 65.1%
- viability, T/C (second compound 1 µM, first compound 0.0999 µM): 24.5%
- viability, T/C [8]: 8.83%
- viability, T/C (second compound 3.16 µM, first compound 0.000999 µM): 90.1%
- viability, T/C (second compound 3.16 µM, first compound 0.00316 µM): 86.7%
- viability, T/C (second compound 3.16 µM, first compound 0.00999 µM): 82.1%
- viability, T/C [9]: 70.3%
- viability, T/C (second compound 3.16 µM, first compound 0.0999 µM): 26.2%
- viability, T/C [10]: 7.17%
- viability, T/C (second compound 10 µM, first compound 0.000999 µM): 68%
- viability, T/C (second compound 10 µM, first compound 0.00316 µM): 70.9%
- viability, T/C (second compound 10 µM, first compound 0.00999 µM): 65.6%
- viability, T/C [11]: 51.8%
- viability, T/C (second compound 10 µM, first compound 0.0999 µM): 27.1%
- viability, T/C [12]: 4.66%
